Results reported in PubChem BioAssay (NCI).
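Five concentrations, 48 hours, 96-well plates. At the TGI there is no net growth.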

What was measured:
Test in all cases: NCI-60 cell line screen, 48 h
HS 578T breast = test system: HS 578T breast
SF-268 CNS = test system: SF-268 CNS
NCI-H522 lung = test system: NCI-H522 lung
OVCAR-4 ovarian = test system: OVCAR-4 ovarian
M14 melanoma = test system: M14 melanoma
PC-3 prostate = test system: PC-3 prostate
OVCAR-8 ovarian = test system: OVCAR-8 ovarian
SK-MEL-2 melanoma = test system: SK-MEL-2 melanoma
ACHN renal = test system: ACHN renal
NCI-H460 lung = test system: NCI-H460 lung

Compound	TGI (HS 578T breast) [µM]	TGI (SF-268 CNS) [µM]	TGI (NCI-H522 lung) [µM]	TGI (OVCAR-4 ovarian) [µM]	TGI (M14 melanoma) [µM]	TGI (PC-3 prostate) [µM]	TGI (OVCAR-8 ovarian) [µM]	TGI (SK-MEL-2 melanoma) [µM]	TGI (ACHN renal) [µM]	TGI (NCI-H460 lung) [µM]
O=C1C2SC34c5c2c2ccccc2n5CCC3CCCN14 (centres undefined)	> 100	> 100	> 100	> 100	> 100	> 100	> 100	> 100	> 100	–
CC1=NN(c2nc(N)nc(/C(C#N)=C\c3ccc([N+](=O)[O-])s3)n2)C(C)(C)C1	> 100	> 100	0.354	12.1	0.8	0.429	0.21	1.66	0.719	0.553
CCOC(=O)CCC(NC(=O)Cc1ccc(Nc2nc3cc(F)c(F)cc3nc2C(=O)OCC)cc1)C(=O)OCC (centres undefined)	> 100	> 100	> 100	> 100	> 100	> 100	> 100	60.4	> 100	> 100
O=C1Sc2cc3ccccc3cc2C(=O)Sc2ccc(Br)cc21	> 35	23.2	4.52	35.2	14.4	12.9	9.53	12.8	6.02	24.2
O=C1Nc2cccc(Cl)c2/C1=C\c1c(Cl)nc2n1CCS2	> 100	> 100	> 100	–	> 100	> 100	> 100	> 100	> 100	> 100
COc1cccc(CCNC(=O)Cc2ccccc2CCO)c1	> 100	> 100	> 100	> 100	> 100	> 100	> 100	> 100	> 100	> 100
COC(=O)/C=C(\C(=O)OC)C1C(=O)Oc2c(C)c(=O)c3ccccc3n21 (centres undefined)	> 100	> 100	> 100	> 100	> 100	> 100	> 100	> 100	–	> 100
COc1cc2c(cc1OC)C(CC1=C(c3ccccc3)CN3CCc4cc(OC)c(OC)cc4C3C1)NCC2 (centres undefined)	–	37.5	–	29.8	46.3	–	36.8	37.1	42.3	37.9
CC(=O)CCn1c(=S)sc2ccccc21	> 100	> 100	> 100	> 100	> 100	> 100	> 100	> 100	> 100	> 100
CCOC1(OCC)C2C=CC1C(COS(=O)(=O)c1ccc(C)cc1)C2COS(=O)(=O)c1ccc(C)cc1 (centres undefined)	> 100	> 100	57.1	79.2	96.5	74.6	> 100	80.9	> 100	> 100
NC(N)=NS(=O)(=O)c1ccc(NNc2c3ccccc3nc3c(C(=O)Nc4ccc(S(=O)(=O)Nc5ncccn5)cc4)cccc23)cc1	–	> 100	45.9	> 100	89.7	> 100	> 100	> 100	> 100	> 100
COc1cc(C2c3cc4c(cc3OC(N3CCCCC3)C2C)OCO4)cc(OC)c1O (centres undefined)	31.8	> 53.8	22.2	> 61.2	> 69.4	22.2	36.7	25.2	23.1	23.3
C=CCn1c(N)c(C#N)c(C#N)c1-c1ccccc1	> 100	> 100	> 100	> 100	> 100	> 100	> 100	> 100	> 100	–
CC(=O)N=C1N(/C=C2\C(=O)Oc3ccccc3C2=O)C(=O)/C(=C/c2cccc(Cl)c2Cl)N1C	26.1	> 100	> 100	–	34.4	> 100	44.3	60.4	34.3	–
Cn1c(=O)c2c(ncn2CCNC(CO)C(O)c2ccc([N+](=O)[O-])cc2)n(C)c1=O (centres undefined)	–	> 100	> 100	> 100	> 100	> 100	> 100	> 100	> 100	> 100
COc1cc(Nc2nc3ccccc3nc2C(=O)O)cc(OC)c1OC	92	> 100	> 100	–	> 100	> 100	> 100	–	> 100	> 100
Nc1ccc2c(c1)C(=O)N1CCC[C@H]1C(=O)N2	–	> 100	> 100	> 100	> 100	> 100	> 100	> 100	> 100	> 100
O=C(O)CCCc1nc2c(n1Cc1ccccc1)C(=O)c1ccccc1C2=O	> 100	> 100	> 100	77.8	20.6	–	> 100	52.9	> 100	> 100

Compound	TGI (HS 578T breast) [µM]	TGI (SF-268 CNS) [µM]	TGI (NCI-H522 lung) [µM]	TGI (OVCAR-4 ovarian) [µM]	TGI (M14 melanoma) [µM]	TGI (PC-3 prostate) [µM]	TGI (OVCAR-8 ovarian) [µM]	TGI (SK-MEL-2 melanoma) [µM]	TGI (ACHN renal) [µM]	TGI (NCI-H460 lung) [µM]
N#C[C@H](c1ccccn1)c1nc2ccccc2nc1Cl	> 100	–	> 100	> 100	> 100	> 100	> 100	> 100	> 100	> 100
O=C(N/N=C(\c1ccccc1)c1ccccn1)NC1CCCCC1	> 100	> 100	> 100	> 100	> 100	> 100	–	> 100	> 100	> 100
BrC1=C(Br)C2(SCCS2)[C@H]2C[C@@H]1c1ccccc12	–	> 100	> 100	> 100	> 100	> 100	> 100	> 100	> 100	> 100
Cc1ccc(S(=O)(=O)c2[nH]cc(/C(=C\C3CCCCC3)[N+](=O)[O-])c2C2CCCCC2)cc1	–	1.84	0.541	1.28	1.15	2.53	2.78	1.82	0.619	2.99
C=CCCON(C(=O)OC(C)(C)C)C(C)(C)C	> 100	> 100	> 100	–	> 100	> 100	> 100	> 100	> 100	> 100
CO/N=C(\C)c1ccc(Nc2nc3ccccc3c3occc23)cc1	30.7	32.5	24	–	30.2	30.3	33.9	33.4	27.6	34.1
Cc1ccc(/C=N/Nc2cc(C)c3cccc(C)c3n2)s1	41.6	64.2	16.9	> 100	18.2	40.8	26.9	33.2	68.5	–
N#Cc1n[nH]n(-c2ccc(Br)cc2)c1=O	> 100	> 100	> 100	> 100	> 100	> 100	> 100	> 100	> 100	–
O=C1COc2cccnc2N1CCCCO	> 100	–	> 100	–	–	> 100	–	> 100	> 100	> 100
CCCCCCNc1n[nH]c(=O)c2c1nnn2Cc1ccccc1	–	–	–	> 100	> 100	> 100	> 100	> 100	> 100	> 100
CC(=O)OC(OC(C)=O)c1ccc2ccc3cccc4ccc1c2c34	36.8	91.7	–	–	61	65.6	> 100	–	65.8	39.6
CO[C@@]12C[C@@H](C)C3=CCC(C)=C3CC1=C(C)C(=O)O2	> 100	> 100	–	> 100	> 100	> 100	> 100	> 100	> 100	> 100
O=C1C=CC(=O)c2c1ccc1c3ccccc3n(CCCCCn3c4ccccc4c4ccc5c(c43)C(=O)C=CC5=O)c21	> 78.7	32.7	4.37	–	39.3	33.9	46.9	44.8	28.6	> 100
CCOC(=O)Nc1[nH]cc(-c2ccccc2)c1C#N	> 100	> 100	> 100	> 100	> 100	> 100	> 100	> 100	> 100	–
CC1(C)[C@@H](Cn2ccc(=O)[nH]c2=O)CC[C@@]1(C)CO	> 100	> 100	–	> 100	> 100	> 100	–	> 100	> 100	–
CCOC(=O)NC(Nc1ccc(C)cc1)(C(F)(F)F)C(F)(F)F	> 100	> 100	> 100	> 100	> 100	> 100	> 100	–	> 100	> 100
CC(=O)Nc1ccc(N=Nc2c(O)c(S(=O)(=O)O)cc3cc(S(=O)(=O)O)ccc23)cc1	> 100	> 100	> 100	> 100	> 100	> 100	> 100	> 100	> 100	–
